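Test compounds were applied to cells in 96-well plates for 48 hours at 5 doses. GI50 marks 50% less growth.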 Activity calls are given as the source filed them. Cut-off read from the data, not from the text of the source: active = GI50 up to about 1.1 µM and inactive = higher.
Columns and labels:
Assay in all cases: inhibition of tumour cell growth, NCI panel, 48 h
HL-60 = tested on: HL-60
HT-29 = tested on: HT-29
Hs-578T = tested on: Hs-578T
IGROV-1 = tested on: IGROV-1
MCF7 = tested on: MCF7
MDA-MB-231 = tested on: MDA-MB-231
MDA-MB-435 = tested on: MDA-MB-435
MDA-N = tested on: MDA-N
Malme-3M = tested on: Malme-3M
NCI-H522 = tested on: NCI-H522
NCI/ADR-RES = tested on: NCI/ADR-RES
RPMI-8226 = tested on: RPMI-8226
SNB-19 = tested on: SNB-19
T47D = tested on: T47D
U-251 = tested on: U-251
UACC-257 = tested on: UACC-257
UACC-62 = tested on: UACC-62
UO-31 = tested on: UO-31
CCRF-CEM = tested on: CCRF-CEM
HCC 2998 = tested on: HCC 2998

Measured: GI50

Cc1[nH]c2ccccc2c1-c1cc(-c2cc(-c3c(C)[nH]c4ccccc34)nc(N)n2)nc(N)n1
inactive: HL-60 > 100 µM | HT-29 > 100 µM | Hs-578T > 100 µM | IGROV-1 > 100 µM | MCF7 > 100 µM | MDA-MB-231 > 100 µM | MDA-MB-435 > 100 µM | MDA-N > 100 µM | Malme-3M > 100 µM | NCI-H522 51.8 µM | NCI/ADR-RES > 100 µM | RPMI-8226 > 100 µM | SNB-19 > 100 µM | T47D > 100 µM | U-251 > 100 µM | UACC-257 > 100 µM | UACC-62 > 100 µM | UO-31 14.9 µM

O=C1OS2(OC(=O)c3cccc4cccc2c34)c2ccccc21 (centres undefined)
inactive: CCRF-CEM > 100 µM | HL-60 > 100 µM | HT-29 > 100 µM | Hs-578T > 100 µM | IGROV-1 > 100 µM | MCF7 > 100 µM | MDA-MB-231 > 100 µM | MDA-MB-435 > 100 µM | MDA-N > 100 µM | Malme-3M > 100 µM | NCI-H522 > 100 µM | NCI/ADR-RES > 100 µM | RPMI-8226 > 100 µM | SNB-19 > 100 µM | T47D > 100 µM | U-251 > 100 µM | UACC-257 > 100 µM | UACC-62 > 10 µM | UO-31 > 100 µM

Nc1ccc2c(O)cc(O)nc2n1
inactive: HL-60 > 100 µM | HT-29 > 100 µM | Hs-578T > 100 µM | IGROV-1 > 100 µM | MCF7 > 100 µM | MDA-MB-231 > 100 µM | MDA-MB-435 > 100 µM | MDA-N > 100 µM | Malme-3M 37.8 µM | NCI-H522 > 100 µM | NCI/ADR-RES > 100 µM | RPMI-8226 > 100 µM | SNB-19 > 100 µM | T47D > 100 µM | U-251 > 100 µM | UACC-257 > 100 µM | UACC-62 > 100 µM | UO-31 > 100 µM

Cc1cc2sc(C)[n+](CCCOS(=O)(=O)[O-])c2cc1C
inactive: HL-60 > 100 µM | HT-29 > 100 µM | Hs-578T 27.9 µM | IGROV-1 > 100 µM | MCF7 60.8 µM | MDA-MB-231 > 100 µM | MDA-MB-435 > 100 µM | MDA-N > 100 µM | Malme-3M 79.6 µM | NCI-H522 40.6 µM | NCI/ADR-RES > 100 µM | RPMI-8226 53 µM | SNB-19 > 100 µM | T47D 58.6 µM | U-251 > 100 µM | UACC-257 > 100 µM | UACC-62 > 100 µM | UO-31 > 100 µM

Cc1cccc(C)c1NC(=S)NC=C(C(N)=O)C(N)=O
inactive: CCRF-CEM > 100 µM | HCC 2998 > 100 µM | HT-29 > 100 µM | Hs-578T > 100 µM | IGROV-1 > 100 µM | MCF7 > 100 µM | MDA-MB-231 > 100 µM | MDA-MB-435 > 100 µM | MDA-N > 100 µM | NCI-H522 > 100 µM | NCI/ADR-RES > 100 µM | RPMI-8226 > 100 µM | SNB-19 > 100 µM | T47D > 100 µM | U-251 > 100 µM | UACC-257 > 100 µM | UACC-62 > 100 µM | UO-31 > 100 µM

O=C(O)C1CCCN1Cc1cc2ccccc2c2ccccc12 (centres undefined)
inactive: HL-60 > 100 µM | HT-29 > 100 µM | Hs-578T > 100 µM | IGROV-1 > 100 µM | MCF7 > 100 µM | MDA-MB-231 > 100 µM | MDA-MB-435 > 100 µM | MDA-N > 100 µM | Malme-3M > 100 µM | NCI-H522 > 100 µM | NCI/ADR-RES > 100 µM | RPMI-8226 > 100 µM | SNB-19 > 100 µM | T47D > 100 µM | U-251 > 100 µM | UACC-257 > 100 µM | UACC-62 > 100 µM | UO-31 > 100 µM

From ChEMBL document CHEMBL1201862, “PubChem BioAssay data set” (2004)
